Patent US6288230A, “2-(2, 3-dihydrobenzofuran-5-yl)-4-aminomethylimidazoles: dopamine receptor subtype specific ligands” (Neurogen Corporation, priority 1999, dated 2001)
Counter-ions that a name gives are not always drawn.

Assays:
D2 receptor = D2 receptor (Chlorocebus aethiops, UniProt P52702); experiment: D2 receptor binding (displacement of 3H-YM 09151-2, COS cells with recombinant receptor); design: species or system African Green monkey; conditions: 0.5 nM 3H-YM 09151-2; nonspecific binding with 1 mM spiperone
Chain of D2 receptor (P52702 whole entry): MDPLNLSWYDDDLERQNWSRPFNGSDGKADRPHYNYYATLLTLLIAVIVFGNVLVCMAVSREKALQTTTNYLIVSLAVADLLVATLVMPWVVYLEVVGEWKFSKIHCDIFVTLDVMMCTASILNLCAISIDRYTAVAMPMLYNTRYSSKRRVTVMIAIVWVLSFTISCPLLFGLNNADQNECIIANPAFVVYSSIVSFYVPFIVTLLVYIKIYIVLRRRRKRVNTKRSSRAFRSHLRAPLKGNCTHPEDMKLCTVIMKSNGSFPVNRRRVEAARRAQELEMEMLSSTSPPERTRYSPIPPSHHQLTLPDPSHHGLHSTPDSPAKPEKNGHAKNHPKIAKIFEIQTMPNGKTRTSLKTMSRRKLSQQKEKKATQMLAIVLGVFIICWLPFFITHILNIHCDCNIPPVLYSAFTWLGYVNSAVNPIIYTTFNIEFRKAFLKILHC

D4 receptor = D4 receptor binding (displacement of 3H-YM 09151-2, COS cells with recombinant receptor); design: species or system African Green monkey; conditions: 0.5 nM 3H-YM 09151-2; nonspecific binding with 1 mM spiperone
Experimental: Pellets of COS cells containing recombinantly produced D2 or D4 receptors from African Green monkey are used for the assays. The sample is homogenized in 100 volumes (w/vol) of 0.05 M Tris HCl buffer at […] and pH 7.4. The sample is then centrifuged at 30,000×g and resuspended and rehomogenized. The sample is then centrifuged again at 30,000×g and the final tissue sample is frozen until use. The tissue is resuspended 1:20 (wt/vol) in 0.05 M Tris HCl buffer containing 100 mM NaCl.

Ki (D2 receptor) [µM]	Structure (SMILES)	Ki (D4 receptor) [µM]
0.143	COc1ccccc1N1CCN(Cc2c[nH]c(-c3ccc4c(c3)CCO4)n2)CC1 [Compound 1, 2-(2,3-Dihydrobenzofuran-5-yl)-4-(1-[4-{2-methoxyphenyl}piperazin-1-yl]methyl)imidazole]	0.003
0.125	c1ccc2c(N3CCN(Cc4c[nH]c(-c5ccc6c(c5)CCO6)n4)CC3)nccc2c1 [Compound 8, 2-(2,3-Dihydrobenzofuran-5-yl)-4-(1-[4-{isoquinolin-1-yl}piperazin-1-yl]methyl)imidazole]	0.001

Second part, the compound before the results:

Structure (SMILES)	Ki (D2 receptor) [µM]	Ki (D4 receptor) [µM]
c1ccc2nc(N3CCN(Cc4cnc(-c5ccc6c(c5)CCO6)[nH]4)CC3)ncc2c1 [Compound 7, 2-(2,3-Dihydrobenzofuran-5-yl)-4-(1-[4-{4,5-benzopyrimidin-2-yl}piperazin-1-yl]methyl)imidazole hydrochloride]	1.13	0.032
Cc1cnc(N2CCN(Cc3cnc(-c4ccc5c(c4)CCO5)[nH]3)CC2)nc1 [Compound 3a, 5-(5-{[4-(5-methylpyrimidin-2-yl)piperazinyl]-methyl}imidazol-2-yl)-2,3-dihydrobenzo[b]furan]	0.716	
c1ccc(CC2CCN(Cc3c[nH]c(-c4ccc5c(c4)CCO5)n3)CC2)cc1 [Compound 6, 2-(2,3-Dihydrobenzofuran-5-yl)-4-(1-[4-benzylpiperidin-1-yl]methyl)imidazole hydrochloride]	0.65	0.003
